In US11667645B2, “Granzyme B directed imaging and therapy” (CytoSite Biopharma Inc., priority 2018, dated 2023):

Molecular target: Granzyme B (human lymphocytes) (Homo sapiens (Human), UniProt P10144)
Assay: human Granzyme B biochemical assay
Settings: Granzyme B (human lymphocytes) 5 nM, substrate Ac-IETD-AFC 200 μM, Cpd incubation with enzyme 30 mins, 22° C., read time 60 mins; read-out: IC50
Outline: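 Fluorogenic Ac-IETD-AFC cleavage (Ex 400/Em 505 nm) read after 60 min at 22 °C, following 30 min, 22 °C enzyme–compound pre-incubation. Working stocks: enzyme 10 nM in 0.1% BSA buffer, substrate 800 µM, compound 8 points, 3.16-fold from 40 µM. Controls set 0% (DMSO) and 100% (standard inhibitor) inhibition; IC50 fitted.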

Chain of Granzyme B (human lymphocytes) (P10144 21-247): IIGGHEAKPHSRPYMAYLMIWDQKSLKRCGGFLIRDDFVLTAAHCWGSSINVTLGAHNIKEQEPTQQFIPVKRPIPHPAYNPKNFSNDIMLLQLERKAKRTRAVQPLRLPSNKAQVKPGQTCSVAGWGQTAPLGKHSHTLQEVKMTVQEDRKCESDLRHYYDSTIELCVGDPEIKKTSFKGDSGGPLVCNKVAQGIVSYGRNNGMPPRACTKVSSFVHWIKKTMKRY

Q: How did the IC50 turn out when Cc1cccc(C(=O)N[C@H](C(=O)N[C@H]2CCc3cccc4c3N(C2=O)[C@H](C(=O)NCc2c[nH]nn2)C4)C(C)C)c1 [Compound C051, (2S,5S)-5-[(S)-3-Methyl-2-(3-methyl-benzoylamino)-butyrylamino]-4-oxo-1,2,4,5,6,7-hexahydro-azepino[3,2,1-hi]indole-2-carboxylic acid (1H-[1,2,3]triazol-4-ylmethyl)-amide] was run?
A: 1 to 300 nM

Q: Cc1ccc(C(=O)N[C@H](C(=O)N[C@H]2CCc3cccc4c3N(C2=O)[C@H](C(=O)NCc2c[nH]nn2)C4)C(C)C)cc1 [Compound C052, (2S,5S)-5-[(S)-3-Methyl-2-(4-methyl-benzoylamino)-butyrylamino]-4-oxo-1,2,4,5,6,7-hexahydro-azepino[3,2,1-hi]indole-2-carboxylic acid (1H-[1,2,3]triazol-4-ylmethyl)-amide] was tested. Which IC50 did it give?
A: 1 to 300 nM

Q: How did the IC50 turn out when CC([C@H](NC(=O)c1ccccc1)C(=O)N[C@H]1CCc2cccc3c2N(C1=O)[C@H](C(=O)NCc1c[nH]nn1)C3)C(F)(F)F (stereo partly drawn) [Compound C055, (2S,5S)-5-((S)-2-Benzoylamino-4,4,4-trifluoro-3-methyl-butyrylamino)-4-oxo-1,2,4,5,6,7-hexahydro-azepino[3,2,1-hi]indole-2-carboxylic acid (1H-[1,2,3]triazol-4-ylmethyl)-amide] was run?
A: 1 to 300 nM

Q: CC[C@H](C)[C@H](NC(=O)c1ccccc1OC)C(=O)N[C@H]1CCc2cccc3c2N(C1=O)[C@H](C(=O)NCc1c[nH]nn1)C3 [Compound C060, (2S,5S)-5-[(2S,3S)-2-(2-Methoxy-benzoylamino)-3-methyl-pentanoylamino]-4-oxo-1,2,4,5,6,7-hexahydro-azepino[3,2,1-hi]indole-2-carboxylic acid(1H-[1,2,3]triazol-4-ylmethyl)-amide] was tested. Which IC50 did it give?
A: 1 to 300 nM

Q: CC[C@H](C)[C@H](NC(=O)c1cccc(OC)c1)C(=O)N[C@H]1CCc2cccc3c2N(C1=O)[C@H](C(=O)NCc1c[nH]nn1)C3 [Compound C061, (2S,5S)-5-[(2S,3S)-2-(3-Methoxy-benzoylamino)-3-methyl-pentanoylamino]-4-oxo-1,2,4,5,6,7-hexahydro-azepino[3,2,1-hi]indole-2-carboxylic acid(1H-[1,2,3]triazol-4-ylmethyl)-amide] was tested. Which IC50 did it give?
A: 1 to 300 nM

Q: Which IC50 does the source give for CC[C@H](C)[C@H](NC(=O)c1ccc(OC)cc1)C(=O)N[C@H]1CCc2cccc3c2N(C1=O)[C@H](C(=O)NCc1c[nH]nn1)C3 [Compound C062, (2S,5S)-5-[(2S,3S)-2-(4-Methoxy-benzoylamino)-3-methyl-pentanoylamino]-4-oxo-1,2,4,5,6,7-hexahydro-azepino[3,2,1-hi]indole-2-carboxylic acid(1H-[1,2,3]triazol-4-ylmethyl)-amide] here?
A: 1 to 300 nM

Q: COc1ccccc1C(=O)N[C@H](C(=O)N[C@H]1CCc2cccc3c2N(C1=O)[C@H](C(=O)NCc1c[nH]nn1)C3)C(C)C [Compound C063, (2S,5S)-5-[(S)-2-(2-Methoxy-benzoylamino)-3-methyl-butyrylamino]-4-oxo-1,2,4,5,6,7-hexahydro-azepino[3,2,1-hi]indole-2-carboxylic acid (1H-[1,2,3]triazol-4-ylmethyl)-amide] was tested. Which IC50 did it give?
A: 1 to 300 nM

Q: How did the IC50 turn out when COc1cccc(C(=O)N[C@H](C(=O)N[C@H]2CCc3cccc4c3N(C2=O)[C@H](C(=O)NCc2c[nH]nn2)C4)C(C)C)c1 [Compound C064, (2S,SS)-5-[(S)-2-(3-Methoxy-benzoylamino)-3-methyl-butyrylamino]-4-oxo-1,2,4,5,6,7-hexahydro-azepino[3,2,1-hi]indole-2-carboxylic acid (1H-[1,2,3]triazol-4-ylmethyl)-amide] was run?
A: 1 to 300 nM

Q: For COc1ccc(C(=O)N[C@H](C(=O)N[C@H]2CCc3cccc4c3N(C2=O)[C@H](C(=O)NCc2c[nH]nn2)C4)C(C)C)cc1 [Compound C065, (2S,5S)-5-[(S)-2-(4-Methoxy-benzoylamino)-3-methyl-butyrylamino]-4-oxo-1,2,4,5,6,7-hexahydro-azepino[3,2,1-hi]indole-2-carboxylic acid (1H-[1,2,3]triazol-4-ylmethyl)-amide], which IC50 is on record?
A: 1 to 300 nM

Q: CC[C@H](C)[C@H](NC(=O)c1ccccn1)C(=O)N[C@H]1CCc2cccc3c2N(C1=O)[C@H](C(=O)NCc1c[nH]nn1)C3 [Compound C066, (2S,5S)-5-{(2S,3S)-3-Methyl-2-[(pyridine-2-carbonyl)-amino]-pentanoylamino}-4-oxo-1,2,4,5,6,7-hexahydro-azepino[3,2,1-hi]indole-2-carboxylicacid (1H-[1,2,3]triazol-4-ylmethyl)-amide] was tested. Which IC50 did it give?
A: 1 to 300 nM

Q: For CC[C@H](C)[C@H](NC(=O)c1cccnc1)C(=O)N[C@H]1CCc2cccc3c2N(C1=O)[C@H](C(=O)NCc1c[nH]nn1)C3 [Compound C067, (2S,5S)-5-{(2S,3S)-3-Methyl-2-[(pyridine-3-carbonyl)-amino]-pentanoylamino}-4-oxo-1,2,4,5,6,7-hexahydro-azepino[3,2,1-hi]indole-2-carboxylicacid (1H-[1,2,3]triazol-4-ylmethyl)-amide], which IC50 is on record?
A: 1 to 300 nM

Q: CC[C@H](C)[C@H](NC(=O)c1ccncc1)C(=O)N[C@H]1CCc2cccc3c2N(C1=O)[C@H](C(=O)NCc1c[nH]nn1)C3 [Compound C068, (2S,5S)-5-{(2S,3S)-3-Methyl-2-[(pyridine-4-carbonyl)-amino]-pentanoylamino}-4-oxo-1,2,4,5,6,7-hexahydro-azepino[3,2,1-hi]indole-2-carboxylicacid (1H-[1,2,3]triazol-4-ylmethyl)-amide] was tested. Which IC50 did it give?
A: 1 to 300 nM

Q: How did the IC50 turn out when CC(C)[C@H](NC(=O)c1ccccn1)C(=O)N[C@H]1CCc2cccc3c2N(C1=O)[C@H](C(=O)NCc1c[nH]nn1)C3 [Compound C069, (2S,5S)-5-{(S)-3-Methyl-2-[(pyridine-2-carbonyl)-amino]-butyrylamino}-4-oxo-1,2,4,5,6,7-hexahydro-azepino[3,2,1-hi]indole-2-carboxylic acid (1H-[1,2,3]triazol-4-ylmethyl)-amide] was run?
A: 1 to 300 nM

Q: For CC(C)[C@H](NC(=O)c1cccnc1)C(=O)N[C@H]1CCc2cccc3c2N(C1=O)[C@H](C(=O)NCc1c[nH]nn1)C3 [Compound C070, (2S,5S)-5-{(S)-3-Methyl-2-[(pyridine-3-carbonyl)-amino]-butyrylamino}-4-oxo-1,2,4,5,6,7-hexahydro-azepino[3,2,1-hi]indole-2-carboxylic acid (1H-[1,2,3]triazol-4-ylmethyl)-amide], which IC50 is on record?
A: 1 to 300 nM

Q: For CC(C)[C@H](NC(=O)c1ccncc1)C(=O)N[C@H]1CCc2cccc3c2N(C1=O)[C@H](C(=O)NCc1c[nH]nn1)C3 [Compound C071, (2S,5S)-5-{(S)-3-Methyl-2-[(pyridine-4-carbonyl)-amino]-butyrylamino}-4-oxo-1,2,4,5,6,7-hexahydro-azepino[3,2,1-hi]indole-2-carboxylic acid (1H-[1,2,3]triazol-4-ylmethyl)-amide], which IC50 is on record?
A: 1 to 300 nM

Q: How did the IC50 turn out when CCC(CC)[C@H](NC(=O)Cc1csc2ccccc12)C(=O)N[C@H]1CCc2cccc3c2N(C1=O)[C@H](C(=O)NCc1c[nH]nn1)C3 [Compound C072, (2S,5S)-5-[(S)-2-(2-Benzo[b]thiophen-3-yl-acetylamino)-3-ethyl-pentanoylamino]-4-oxo-1,2,4,5,6,7-hexahydro-azepino[3,2,1-hi]indole-2-carboxylic acid (1H-[1,2,3]triazol-4-ylmethyl)-amide] was run?
A: 301 to 1000 nM
